Assays:
[1] = test system: human hepatoma cell line 7701 QGY; assay: MTT growth inhibition of 7701 QGY cells; type: cell-based; details: read-out: IC50 (μM) Tumor cells 7701 QGY
Description: (§1) The drugs were formulated into a stock solution in DMSO, and the concentration of the stock solution was 20 mmol (used within 4 hours). In the experiment, the work solution of the drugs was diluted with RPM11640 medium containing 10% calf serum under aseptic condition, to a final concentration of 80 μM. The drug concentrations were increased by 2 times (1.25-20 μM).
(§2) The DU145 cell in logarithmic growth phase were selected, centrifuged, counted, and formulated into a cell suspension (2.5×10^4/ml) with RPM11640 medium containing 10% calf serum. The cell suspension were inoculated into 96-well plates at a density of 5000 cells/200 μl per well, incubated for 24 hours at 37° C., 5% CO2. According to the above concentration of the drug, the cells were inoculated to 6 groups (including one control group), with 8 wells per group. After incubating for 72 hours, the viability of cells was measured by MTT assay. The absorbance value (A) was measured with detection wavelength at 540 nm, reference wavelength at 630 nm. The inhibitory rate (I) was calculated by the following equation, where T was the absorbance value of the experimental groups, and C was the absorbance value of the blank control group: I=(1−T/C)×100%
(§3) The regression equation was calculated by the concentration-inhibitory rate curve, to obtain 50% and 90% inhibition concentration (IC50 and IC90, μM).
(§4) 1. Tumor Cells: human hepatoma cell lines 7701 QGY and HepG-2, human lung adenocarcinoma cell line A549, human chronic myelocytic leukemia cell line K562, human leukemia cell line CEM and mouse melanoma cell line K111.
(§5) 2. Using the methods described in example 2, the biological activity of a portion of newly synthesized 5- or 7-azaindirubin derivatives and 5- or 7-azaisoindigo derivatives (20 compounds) for inhibiting various tumor cells growth were determined.

[2] = test system: human lung adenocarcinoma cell line A549; assay: MTT growth inhibition of A549 cells; type: cell-based; details: read-out: IC50 (μM) Tumor cells A549
Description: as §1, §2, §3, §4, §5

[3] = test system: human chronic myelocytic leukemia cell line K562; assay: MTT growth inhibition of K562 cells; type: cell-based; details: read-out: IC50 (μM) Tumor cells K562
Description: as §1, §2, §3, §4, §5

[4] = test system: human leukemia cell line CEM; assay: MTT growth inhibition of CEM cells; type: cell-based; details: read-out: IC50 (μM) Tumor cells CEM
Description: as §1, §2, §3, §4, §5

[5] = test system: human hepatoma cell line HepG-2; assay: MTT growth inhibition of HepG-2 cells; type: cell-based; details: HepG-2, MTT; read-out: IC50 (μM) Tumor cells HepG-2
Description: as §1, §2, §3, §4, §5

[6] = test system: mouse melanoma cell line K111; assay: MTT growth inhibition of K111 cells; type: cell-based; details: Klll, read-out: IC50 (μM) Tumor cells Klll
Description: as §1, §2, §3, §4, §5

DU145 tumor cells = assay: MTT growth inhibition of DU145 cells, 72 h; type: cell-based, human; details: for IC50 / IC90: DU145, 72 h, MTT; for growth inhibitory effects on tumor cells (in words): discussion of the MTT assay, DU145
Description: DU145 cells were inoculated in RPM11640 medium containing 10% calf serum, incubated at 37° C., 5% CO2 in CO2 incubator, and passaged every 2-3 days. In this experiment, cells were grown in logarithmic growth phase.
In the experiment, the cells at logarithmic growth phase were formulated into suspension, and the viability by trypan blue staining was more than 98%. The suspension was divided into several groups: 1 as blank control group (cell suspension); and 2 as experimental groups (cell suspension plus drugs).
as §1, §2, §3

[7] = Homo sapiens, DU-145, 72 h, Table 5
[8] = Homo sapiens, DU-145, 72 h, Table 6

SMILES | IC50 (DU145 tumor cells; Table 6) [µM] | IC90 (DU145 tumor cells; Table 6) [µM] | IC50 (DU145 tumor cells; Table 5) [µM] | IC90 (DU145 tumor cells; Table 5) [µM] | also measured
CN1C(=O)C(=C2Nc3ccc(Br)cc3C2=O)c2cccnc21 [Compound 101] | 11.5 | 60 |  |  | IC50 [1]: 15 µM; IC50 [2]: 21.6 µM; IC50 [3]: 7.8 µM; IC50 [4]: 12 µM; IC50 [5]: 28.8 µM; IC50 [6]: 23 µM
CC(C)N1C(=O)C(=C2C(=O)Nc3ccc(Br)cc32)c2cccnc21 [Compound 165] | 8.3 | 28 |  |  | 
CC(C)N1C(=O)C(=C2Nc3ccc(Cl)cc3C2=NO)c2cnccc21 [Compound 31] |  |  | 3.7 | 11.5 | 
CC(C)N1C(=O)C(=C2Nc3ccc(Br)cc3C2=O)c2cccnc21 [Compound 105] | 8.1 | 28.5 |  |  | IC50 [1]: 13.4 µM; IC50 [2]: 24.1 µM; IC50 [3]: 19 µM; IC50 [4]: 8 µM; IC50 [5]: 32 µM; IC50 [6]: 11.9 µM
CCN1C(=O)C(=C2Nc3ccc(Br)cc3C2=NO)c2cccnc21 [Compound 119] | 4 | 12 |  |  | IC50 [1]: 13.5 µM; IC50 [2]: 8.5 µM; IC50 [3]: 7.9 µM; IC50 [4]: 9 µM; IC50 [5]: 8.1 µM; IC50 [6]: 8.1 µM
CN1C(=O)C(=C2Nc3ccc(Cl)cc3C2=NO)c2cccnc21 [Compound 116] | 6.9 | 16 |  |  | IC50 [1]: 11.1 µM; IC50 [2]: 12.5 µM; IC50 [3]: 8.2 µM; IC50 [4]: 5.6 µM; IC50 [5]: 20.5 µM; IC50 [6]: 6.3 µM; growth inhibitory effects on tumor cells (in words) (DU145 tumor cells): relatively significant growth inhibitory effects
CCCCN1C(=O)C(=C2C(=O)Nc3ccc(F)cc32)c2cnccc21 [Compound 82] |  |  | > 100 | > 100 | 
CCCCN1C(=O)C(=C2Nc3ccc(Br)cc3C2=NO)c2cccnc21 [Compound 123] | 3.7 | 5 |  |  | 
CC(C)N1C(=O)C(=C2Nc3ccc(Cl)cc3C2=O)c2cnccc21 [Compound 15] |  |  | 9 | 48 | 
CC1=C(/C=C/C(C)=C/C=C/C(C)=C/C(=O)O)C(C)(C)CCC1 [all-trans retinoic acid, reference compound] |  |  |  |  | IC50 (DU145 tumor cells; [7]): > 50 µM; IC50 (DU145 tumor cells; [8]): > 50 µM
CCCCN1C(=O)C(=C2C(=O)Nc3ccccc32)c2cnccc21 [Compound 78] |  |  | 16 | 51 | 
CC(C)N1C(=O)C(=C2Nc3ccc(Cl)cc3C2=NO)c2cccnc21 [Compound 122] | 8 | 25 |  |  | 
CC(C)N1C(=O)C(=C2C(=O)Nc3ccc(Cl)cc32)c2cnccc21 [Compound 75] |  |  | 9.7 | 29 | 
CCN1C(=O)C(=C2Nc3ccccc3C2=NO)c2cnccc21 [Compound 38] |  |  | 6.4 | 22 | 
O=C1C(=C2C(=O)N(Cc3ccccc3)c3ccncc32)Nc2ccccc21 [Compound 9] |  |  | 12 | 85 | 
CN1C(=O)C(=C2C(=O)Nc3ccc(F)cc32)c2cnccc21 [Compound 63] |  |  | 48 | > 100 | 

SMILES | IC50 (DU145 tumor cells; Table 6) [µM] | IC90 (DU145 tumor cells; Table 6) [µM] | IC50 (DU145 tumor cells; Table 5) [µM] | IC90 (DU145 tumor cells; Table 5) [µM] | also measured
CCCCN1C(=O)C(=C2Nc3ccccc3C2=NO)c2cccnc21 [Compound 131, 1-butyl-7-azaindirubin-3′-oxime] | 16 | 80 |  |  | 
CCN1C(=O)C(=C2Nc3ccc(Br)cc3C2=O)c2cnccc21 [Compound 12] |  |  | 8.8 | 28 | 
CCN1C(=O)C(=C2C(=O)Nc3ccc(F)cc32)c2cccnc21 [Compound 162] | 17.5 | 89 |  |  | 
CCN1C(=O)C(=C2C(=O)Nc3ccc(F)cc32)c2cnccc21 [Compound 71] |  |  | 17 | 87 | 
CCCCN1C(=O)C(=C2Nc3ccc(Br)cc3C2=O)c2cccnc21 [Compound 107] | 14 | 26 |  |  | 
CC(C)N1C(=O)C(=C2C(=O)Nc3ccc(Cl)cc32)c2cccnc21 [Compound 166] | 10 | 31.5 |  |  | 
CN1C(=O)C(=C2Nc3ccc(Cl)cc3C2=NO)c2cnccc21 [Compound 25] |  |  | 1.7 | 12.2 | growth inhibitory effects on tumor cells (in words) (DU145 tumor cells): relatively significant growth inhibitory effects
O=C1C(=C2C(=O)N(Cc3ccccc3)c3ncccc32)Nc2ccccc21 [Compound 100] | 9.5 | 31.5 |  |  | 
O=C1Nc2ccc(Br)cc2C1=C1C(=O)N(Cc2ccccc2)c2ncccc21 [Compound 176] |  |  |  |  | IC50 [1]: 13.7 µM; IC50 [2]: 13.2 µM; IC50 [3]: 4.1 µM; IC50 [4]: 7.4 µM; IC50 [5]: 20.6 µM; IC50 [6]: 8.3 µM
CC(C)N1C(=O)C(=C2Nc3ccccc3C2=O)c2cnccc21 [Compound 7] |  |  | > 100 |  | 
CCN1C(=O)C(=C2Nc3ccc(Cl)cc3C2=O)c2cccnc21 [Compound 104] | 8.5 | 45 |  |  | 
CCCCN1C(=O)C(=C2C(=O)Nc3ccccc32)c2cccnc21 [Compound 169] | 14 | 47 |  |  | 
CC(C)N1C(=O)C(=C2Nc3ccccc3C2=O)c2cccnc21 [Compound 98] | > 100 |  |  |  | 
CCCCN1C(=O)C(=C2C(=O)Nc3ccc(Cl)cc32)c2cccnc21 [Compound 171] | 9 | 46 |  |  | 
CCCCN1C(=O)C(=C2Nc3ccccc3C2=O)c2cnccc21 [Compound 8] |  |  | 11.5 | 39 | 
CCN1C(=O)/C(=C2\Nc3ccccc3C2=O)c2ccccc21 [Compound 90, 1-ethyl-indirubin, reference compound] |  |  |  |  | IC50 (DU145 tumor cells; [7]): 7.2 µM; IC90 (DU145 tumor cells; [7]): 31 µM; IC50 (DU145 tumor cells; [8]): 7 µM; IC90 (DU145 tumor cells; [8]): 30 µM

Further lines, with some results ahead:

IC50 (DU145 tumor cells; Table 6) [µM] | IC90 (DU145 tumor cells; Table 6) [µM] | IC50 (DU145 tumor cells; Table 5) [µM] | IC90 (DU145 tumor cells; Table 5) [µM] | SMILES | also measured
14 | 61 |  |  | CCN1C(=O)C(=C2C(=O)N(CC)c3ncccc32)c2cc(Br)ccc21 [Compound 160] | IC50 [1]: 25.4 µM; IC50 [2]: 29.1 µM; IC50 [3]: 10.2 µM; IC50 [4]: 10.8 µM; IC50 [5]: 31.1 µM; IC50 [6]: 15 µM
 |  | 4.5 | 14 | CCN1C(=O)C(=C2Nc3ccc(Br)cc3C2=NO)c2cnccc21 [Compound 28] | 
11.5 | 87 |  |  | CCCCN1C(=O)C(=C2Nc3ccccc3C2=O)c2cccnc21 [Compound 99] | IC50 [1]: 12.4 µM; IC50 [2]: 18.4 µM; IC50 [3]: 6.7 µM; IC50 [4]: 7.1 µM; IC50 [5]: 29.3 µM; IC50 [6]: 10.1 µM
7 | 24 |  |  | O=C1C(=C2C(=O)N(Cc3ccccc3)c3ncccc32)Nc2ccc(Br)cc21 [Compound 109, 1-benzyl-5′-bromo-7-azaindirubin] | IC50 [1]: 10 µM; IC50 [2]: 15.8 µM; IC50 [3]: 12.5 µM; IC50 [4]: 9 µM; IC50 [5]: 21.2 µM; IC50 [6]: 18.6 µM
 |  | 7.3 | 20 | O=C1C(=C2Nc3ccc(Cl)cc3C2=NO)c2cnccc2N1Cc1ccccc1 [Compound 35] | 
11 | 42 |  |  | CCCCN1C(=O)C(=C2Nc3ccc(Cl)cc3C2=O)c2cccnc21 [Compound 108] | 
10 | 32.2 |  |  | CCN1C(=O)C(=C2Nc3ccc(Br)cc3C2=O)c2cccnc21 [Compound 103] | 
 |  | 2.2 | 6.8 | CCN1C(=O)C(=C2Nc3ccc(Cl)cc3C2=NO)c2cnccc21 [Compound 29] | 
5.4 | 61 |  |  | CCN1C(=O)C(=C2Nc3ccc(Cl)cc3C2=NO)c2cccnc21 [Compound 120] | 
> 100 | > 100 |  |  | CCCCN1C(=O)C(=C2C(=O)Nc3ccc(F)cc32)c2cccnc21 [Compound 173] | 
 |  | 14.5 | 77 | CCCCN1C(=O)C(=C2C(=O)Nc3ccc(Br)cc32)c2cnccc21 [Compound 79] | 
7.05 | 17 |  |  | CC(C)N1C(=O)C(=C2Nc3ccccc3C2=NO)c2cccnc21 [Compound 130] | 
 |  | 8 | 44 | CC(=O)OCC1OC(N2C(=O)C(=C3C(=O)Nc4ccccc43)c3cnccc32)C(OC(C)=O)C1OC(C)=O (centres unmarked) [Compound 67] | 
14 | 45 |  |  | CCN1C(=O)C(=C2C(=O)Nc3ccc(Cl)cc32)c2cccnc21 [Compound 161] | 
